Assay results as given in patent publication US7947717B2 (priority 2008, dated 2011).
Like-named read-outs stand apart in the source and are kept apart here.

Assays:
lethal factor (LF) = lethal factor (LF) (Bacillus anthracis, UniProt P15917); test: biochemical; format: biochemical
BoNT A = BoNT A (Clostridium botulinum, UniProt P0DPI0); test: biochemical
MMP-2 = molecular target: T1, MMP-2 (Homo sapiens, UniProt P08253); test: MMP-2 assay (Anaspec kit); format: biochemical
T1 construct: purchased Anaspec, Inc. 71151/71155
T1 sequence (P08253 110-660): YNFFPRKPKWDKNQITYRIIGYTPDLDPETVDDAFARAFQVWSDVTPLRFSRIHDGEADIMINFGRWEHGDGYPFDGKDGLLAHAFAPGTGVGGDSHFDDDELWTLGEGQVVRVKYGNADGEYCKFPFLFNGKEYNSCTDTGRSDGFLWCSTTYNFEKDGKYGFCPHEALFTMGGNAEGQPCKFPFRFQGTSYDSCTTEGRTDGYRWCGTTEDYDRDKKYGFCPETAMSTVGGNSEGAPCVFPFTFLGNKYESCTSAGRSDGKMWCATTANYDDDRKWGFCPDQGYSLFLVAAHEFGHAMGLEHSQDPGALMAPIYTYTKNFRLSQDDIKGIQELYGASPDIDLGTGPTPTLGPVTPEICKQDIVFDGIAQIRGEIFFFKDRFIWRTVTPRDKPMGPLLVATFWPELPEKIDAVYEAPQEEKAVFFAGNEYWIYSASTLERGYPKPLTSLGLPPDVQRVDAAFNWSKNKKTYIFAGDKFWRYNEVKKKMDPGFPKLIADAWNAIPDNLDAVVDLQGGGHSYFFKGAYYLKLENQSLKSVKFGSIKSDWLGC

MMP-9 = molecular target: T2, MMP-9 (Homo sapiens, UniProt P14780); test: MMP-9 assay (Anaspec kit); format: biochemical
T2 construct: purchased Anaspec, Inc. 71151/71155

RAW 264.7 cells = format: cell-based, Murine
physchem = conditions: 23 °C, pH 7.4, aqueous with cosolvent or surfactant or cyclodextrin, kinetic from dmso stock

Chain of lethal factor (LF) (P15917 34-809 limits assumed): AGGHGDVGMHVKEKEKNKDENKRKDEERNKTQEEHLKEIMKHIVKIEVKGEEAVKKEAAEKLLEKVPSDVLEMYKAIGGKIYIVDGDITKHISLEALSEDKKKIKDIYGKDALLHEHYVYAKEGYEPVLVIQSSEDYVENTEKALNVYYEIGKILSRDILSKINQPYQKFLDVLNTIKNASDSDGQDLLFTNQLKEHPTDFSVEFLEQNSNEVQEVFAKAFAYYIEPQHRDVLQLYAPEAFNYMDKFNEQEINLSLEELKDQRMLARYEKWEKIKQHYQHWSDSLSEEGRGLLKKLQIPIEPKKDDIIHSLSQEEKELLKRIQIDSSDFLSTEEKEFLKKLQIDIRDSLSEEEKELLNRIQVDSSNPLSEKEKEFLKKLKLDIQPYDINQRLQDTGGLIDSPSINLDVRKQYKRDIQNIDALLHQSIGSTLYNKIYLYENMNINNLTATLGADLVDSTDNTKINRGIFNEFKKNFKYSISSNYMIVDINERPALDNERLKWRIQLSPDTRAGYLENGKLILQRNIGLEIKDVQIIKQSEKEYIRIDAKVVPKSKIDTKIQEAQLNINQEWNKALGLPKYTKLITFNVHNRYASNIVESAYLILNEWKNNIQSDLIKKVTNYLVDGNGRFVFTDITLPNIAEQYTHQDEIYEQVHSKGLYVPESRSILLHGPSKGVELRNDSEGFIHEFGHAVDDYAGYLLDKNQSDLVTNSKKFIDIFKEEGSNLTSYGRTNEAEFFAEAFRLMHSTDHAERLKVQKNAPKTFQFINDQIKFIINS
Chain of BoNT A (P0DPI0 whole entry, looked up): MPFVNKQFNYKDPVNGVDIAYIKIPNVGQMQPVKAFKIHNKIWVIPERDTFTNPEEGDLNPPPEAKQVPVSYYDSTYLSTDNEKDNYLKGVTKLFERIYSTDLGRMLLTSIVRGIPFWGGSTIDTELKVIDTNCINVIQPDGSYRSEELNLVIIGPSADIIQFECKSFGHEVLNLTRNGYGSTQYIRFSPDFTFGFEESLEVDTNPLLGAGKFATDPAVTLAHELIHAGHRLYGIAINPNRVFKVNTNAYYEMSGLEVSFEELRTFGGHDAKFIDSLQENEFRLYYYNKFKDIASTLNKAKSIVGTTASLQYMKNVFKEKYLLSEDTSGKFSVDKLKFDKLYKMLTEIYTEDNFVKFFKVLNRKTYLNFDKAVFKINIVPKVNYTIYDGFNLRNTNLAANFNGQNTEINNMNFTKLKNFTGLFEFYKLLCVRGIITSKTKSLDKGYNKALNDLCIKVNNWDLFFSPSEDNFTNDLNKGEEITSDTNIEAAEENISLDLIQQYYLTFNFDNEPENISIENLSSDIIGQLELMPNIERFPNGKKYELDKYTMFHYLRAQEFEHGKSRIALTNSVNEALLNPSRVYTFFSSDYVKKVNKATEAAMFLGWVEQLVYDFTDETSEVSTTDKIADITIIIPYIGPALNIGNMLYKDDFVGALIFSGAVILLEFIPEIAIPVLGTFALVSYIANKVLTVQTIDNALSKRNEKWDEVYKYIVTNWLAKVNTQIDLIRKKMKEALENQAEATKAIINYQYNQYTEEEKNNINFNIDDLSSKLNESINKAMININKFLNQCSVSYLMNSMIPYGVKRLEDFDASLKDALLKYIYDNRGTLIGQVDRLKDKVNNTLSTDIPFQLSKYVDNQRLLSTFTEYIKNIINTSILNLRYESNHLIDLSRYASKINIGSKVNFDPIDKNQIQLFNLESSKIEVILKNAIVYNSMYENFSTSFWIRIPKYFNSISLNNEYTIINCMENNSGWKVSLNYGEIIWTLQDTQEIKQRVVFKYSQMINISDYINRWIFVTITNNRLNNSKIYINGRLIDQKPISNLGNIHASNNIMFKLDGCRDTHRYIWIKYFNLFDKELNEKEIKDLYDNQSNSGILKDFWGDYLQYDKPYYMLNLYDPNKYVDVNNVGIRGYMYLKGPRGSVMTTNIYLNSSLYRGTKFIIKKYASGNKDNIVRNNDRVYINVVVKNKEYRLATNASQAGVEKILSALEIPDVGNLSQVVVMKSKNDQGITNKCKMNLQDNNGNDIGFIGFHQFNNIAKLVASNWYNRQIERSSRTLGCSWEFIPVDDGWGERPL
T2 sequence (P14780 107-707 limits assumed): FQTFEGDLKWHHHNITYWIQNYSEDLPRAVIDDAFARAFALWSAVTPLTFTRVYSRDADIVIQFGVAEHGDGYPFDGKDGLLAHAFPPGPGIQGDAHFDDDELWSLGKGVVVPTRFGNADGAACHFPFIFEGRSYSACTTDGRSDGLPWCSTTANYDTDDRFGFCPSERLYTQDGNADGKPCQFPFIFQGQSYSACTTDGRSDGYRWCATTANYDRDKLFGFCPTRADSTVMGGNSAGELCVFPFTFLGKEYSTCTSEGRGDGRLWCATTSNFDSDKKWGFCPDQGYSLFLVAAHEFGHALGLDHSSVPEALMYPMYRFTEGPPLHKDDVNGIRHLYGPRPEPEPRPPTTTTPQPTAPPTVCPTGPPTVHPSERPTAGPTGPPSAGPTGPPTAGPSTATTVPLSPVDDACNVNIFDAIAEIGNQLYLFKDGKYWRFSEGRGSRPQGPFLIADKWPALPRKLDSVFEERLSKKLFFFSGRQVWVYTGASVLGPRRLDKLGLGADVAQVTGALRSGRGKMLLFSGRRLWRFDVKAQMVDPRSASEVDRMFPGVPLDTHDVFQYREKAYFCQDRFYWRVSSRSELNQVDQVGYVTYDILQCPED

Compound	IC50 (lethal factor (LF); pH 7.4, read-out: LF IC50)	IC50 (BoNT A)	IC50 (MMP-2)	IC50 (MMP-9)	other results
O=C(O)CN1C(=O)/C(=C2/C(=O)N(CC(=O)Nc3cccc(Cl)c3)c3ccccc32)SC1=S [Compound 62, (Z)-2-(5-(1-(2-(3-chlorophenylamino)-2-oxoethyl)-2-oxoindolin-3-ylidene)-4-oxo-2-thioxothiazolidin-3-yl)acetic acid]	4.4 µM	> 200 µM	> 25 µM	> 25 µM	
O=C(O)CN1C(=O)/C(=C/c2cn(-c3ccc(Br)cc3)nc2-c2ccc(Br)cc2)SC1=S [Compound 35, (Z)-2-(5-((1,3-bis(4-bromophenyl)-1H-pyrazol-4-yl)methylene)-4-oxo-2-thioxothiazolidin-3-yl)acetic acid]	3.35 µM	5.45 µM			inhibition of MMP-2 (in words) (MMP-2): did not inhibit; inhibition of MMP-9 (in words) (MMP-9): did not inhibit
O=C(O)CN1C(=O)/C(=C/c2sc(Br)c3c2OCCO3)SC1=S [Compound 47, (Z)-2-(5-((7-bromo-2,3-dihydrothieno[3,4-b][1,4]dioxin-5-yl)methylene)4-oxo-2-thioxothiazolidin-3-yl)acetic acid]	11.4 µM	> 200 µM			IC50 (MMP-2; read-out: MMP2 IC50): 50.6 µM
O=C(O)CN1C(=O)C(=Cc2cc(-c3ccc(Cl)cc3)on2)SC1=S [Compound 24, 2-(5-((5-(4-chlorophenyl)isoxazol-3-yl)methylene)-4-oxo-2-thioxothiazolidin-3-yl)acetic acid]		82.7 µM	19.2 µM	> 100 µM	
O=C1/C(=C/c2cn(-c3ccccc3)nc2-c2ccc(OCc3ccc(Cl)cc3)cc2)SC(=S)N1CCS(=O)(=O)O [Compound 38, (Z)-2-(5-((3-(4-(4-chlorobenzyloxy)phenyl)-1-phenyl-1H-pyrazol-4-yl)methylene)-4-oxo-2-thioxothiazolidin-3-yl)ethanesulfonic acid]	2.45 µM	> 200 µM	10.1 µM		protection of macrophages from LF/PA-induced cell death (RAW 264.7 cells): protect macrophages from LF/PA-induced cell death
CC1Cc2cc(-c3nn(-c4ccccc4)cc3/C=C3\SC(=S)N(CCS(=O)(=O)O)C3=O)ccc2O1 (centres unmarked) [Compound 39, (Z)-2-(5-((3-(2-methyl-2,3-dihydrobenzofuran-5-yl)-1-phenyl-1H-pyrazol-4-yl)methylene)-4-oxo-2-thioxothiazolidin-3-yl)ethanesulfonic acid]	2.29 µM	> 200 µM			protection of macrophages from LF/PA-induced cell death (RAW 264.7 cells): protect macrophages from LF/PA-induced cell death
COCCc1ccc(OCC(O)CNC(C)C)cc1 (centres unmarked) [Metoprolol]					Pampa (d) permeability class: High
O=C(O)CN1C(=O)/C(=C/c2cn(-c3ccc(F)cc3F)nc2-c2cccnc2)SC1=S [Compound 32, (Z)-2-(5-((1-(2,4-difluorophenyl)-3-(pyridin-3-yl)-1H-pyrazol-4-yl)methylene)-4-oxo-2-thioxothiazolidin-3-yl)acetic acid]	2.99 µM	71.5 µM	13.7 µM		
O=C(O)CN1C(=O)/C(=C/c2ccc(N3CCOCC3)s2)SC1=S [Compound 48, (Z)-2-(5-((5-morpholinothiophen-2-yl)methylene)-4-oxo-2-thioxothiazolidin-3-yl)acetic acid]	32.5 µM	112 µM			IC50 (MMP-2; read-out: MMP2 IC50): 47.1 µM; IC50 (MMP-9; read-out: MMP9 IC50): 64.9 µM
COc1ccc(-c2nn(-c3ccccc3)cc2/C=C2\SC(=S)N(CCS(=O)(=O)O)C2=O)cc1 [Compound 40, (Z)-2-(5-((3-(4-methoxyphenyl)-1-phenyl-1H-pyrazol-4-yl)methylene)-4-oxo-2-thioxothiazolidin-3-yl)ethanesulfonic acid]	2.04 µM	> 200 µM	34.5 µM		protection of macrophages from LF/PA-induced cell death (RAW 264.7 cells): protect macrophages from LF/PA-induced cell death
Cc1ccc2cc(/C=C3\SC(=S)N(CC(=O)O)C3=O)ccc2n1 [Compound 54, (Z)-2-(5-((2-methylquinolin-6-yl)methylene)-4-oxo-2-thioxothiazolidin-3-yl)acetic acid]	5.25 µM	> 200 µM			IC50 (MMP-2; read-out: MMP2 IC50): 18 µM
Cc1ccc(-c2cc(C=C3SC(=S)N(CC(=O)O)C3=O)no2)cc1 [Compound 22, 2-(4-oxo-2-thioxo-5-((5-p-tolylisoxazol-3-yl)methylene)thiazolidin-3-yl)acetic acid]		130 µM	< 10 µM	> 100 µM	IC50 (lethal factor (LF)): 5.9 µM
COc1ccc(-c2cc(C=C3SC(=S)N(CC(=O)O)C3=O)no2)cc1 [Compound 23, 2-(5-((5-(4-methoxyphenyl)isoxazol-3-yl)methylene)-4-oxo-2-thioxothiazolidin-3-yl)acetic acid]		194 µM	6.62 µM	> 100 µM	
CC(C)NCC(O)COc1cccc2ccccc12 (centres unmarked) [Propranolol]					Pampa (d) permeability class: High
O=C1/C(=C/c2cn(-c3ccccc3)nc2-c2ccc(Cl)cc2)SC(=S)N1CCS(=O)(=O)O [Compound 41, (Z)-2-(5-((3-(4-chlorophenyl)-1-phenyl-1H-pyrazol-4-yl)methylene)-4-oxo-2-thioxothiazolidin-3-yl)ethanesulfonic acid]	3.66 µM	> 200 µM	26.9 µM		
CC(=O)Oc1ccccc1C(=O)O [acetylsalicylic acid, reference compound]					solubility (physchem): > 100 µg/mL
O=C(O)CN1C(=O)/C(=C/c2cc(-c3ccco3)on2)SC1=S [Compound 20, (Z)-2-(5-((5-(furan-2-yl)isoxazol-3-yl)methylene)-4-oxo-2-thioxothiazolidin-3-yl)acetic acid]	17 µM	> 200 µM			IC50 (MMP-2; read-out: MMP2 IC50): 39.4 µM
O=C(O)CN1C(=O)/C(=C/c2cn(-c3ccc(F)cc3)nc2-c2ccc(F)cc2)SC1=S [Compound 33, (Z)-2-(5-((1,3-bis(4-fluorophenyl)-1H-pyrazol-4-yl)methylene)-4-oxo-2-thioxothiazolidin-3-yl)acetic acid]	4.22 µM	52.6 µM	39.4 µM		
O=C(O)CN1C(=O)C(=Cc2cc(-c3ccccc3)on2)SC1=S [Compound 21, 2-(4-oxo-2-thioxo-5-((5-phenylisoxazol-3-yl)methylene)thiazolidin-3-yl)acetic acid]		> 200 µM	> 100 µM	50 µM	IC50 (lethal factor (LF)): 18.7 µM
O=C(O)CN1C(=O)/C(=C/c2csc3ccc(Br)cc23)SC1=S [Compound 58, (Z)-2-(5-((5-bromobenzo[b]thiophen-3-yl)methylene)-4-oxo-2-thioxothiazolidin-3-yl)acetic acid]	10.4 µM	74.3 µM			IC50 (MMP-2; read-out: MMP2 IC50): 46.9 µM; IC50 (MMP-9; read-out: MMP9 IC50): 64.9 µM
O=C(O)CN1C(=O)C(=Cc2cc(-c3ccc(Br)cc3)on2)SC1=S [Compound 26, 2-(5-((5-(4-bromophenyl)isoxazol-3-yl)methylene)-4-oxo-2-thioxothiazolidin-3-yl)acetic acid]		> 200 µM	> 100 µM	27.4 µM	IC50 (lethal factor (LF)): 17.3 µM
Lucifer Yellow					Pampa (d) permeability class: Low
O=C(O)CN1C(=O)C(=Cc2cc(-c3ccc(F)cc3)on2)SC1=S [Compound 25, 2-(5-((5-(4-fluorophenyl)isoxazol-3-yl)methylene)-4-oxo-2-thioxothiazolidin-3-yl)acetic acid]		> 200 µM	10 µM	> 100 µM	IC50 (lethal factor (LF)): 12.4 µM
